Literature values in patent publication US20240350374A1, “COMPOSITION AND METHODS OF TREATMENT USING TRANSDERMAL SUPPLEMENTATION” (Xygenyx Inc., priority 2023, published 2024).
Where a SMILES comes first, the peptide text is derived from it.

Experiments:
F2-isoprostane = settings: large doses of 1600-3200 IU/day
[1] = compared to α-tocopherol = 1.0
[2] = in vivo
[3] = system: wide dynamic range neurons in the ventroposterolateral nucleus of the thalamus; settings: believed
rheumatoid arthritis = settings: arthritic subjects
skin [4] = settings: as penetration enhancer
[5] = even when dietary intake occurs in equal portions
skin [6] = settings: topical application, concentrations 0.5-5%
skin [7] = settings: topical formulations, within four weeks of treatment
markers of inflammation = settings: supplementation, individuals with metabolic syndrome

In the case of `Cc1c(C)c2c(c(C)c1O)CC[C@@](C)(CCC[C@H](C)CCC[C@H](C)CCCC(C)C)O2` [α-tocopherol], the “blood plasma concentration of F2-isoprostane” value (F2-isoprostane) is listed as “significantly lower”, the “reduction of risk of coronary disease” value (dietary supplementation, doses up to 400 IU/day) is listed as “up to 34%” and the “reduction of risk of developing neurodegenerative diseases (Alzheimer's Syndrome or dementia)” value (dietary supplementation, doses up to 400 IU/day, controlled trials) is listed as at most 24%. For the same compound, the “reduction in the development of age-related cataracts” value (in combination with 10-20 mg β-carotene and 400-500 mg vitamin C, doses around 400-500 IU) was 23% and the relative biological activity [1] was 1.0.

For “HGH: hormone comprising a peptide chain that is synthesized in the pituitary gland”, the biological half-life [2] is listed as 10-20 minutes.

In the case of `CCCCCc1cc(O)c2c(c1)OC(C)(C)C1CCC(C)=CC21` (stereo not shown) [THC, Δ-9-tetrahydrocannabinol], the “power in mediating pain relative to morphine” value [3] is listed as “ten times more powerful than morphine”.

In the case of `C=C1CC/C=C(\C)CC[C@@H]2[C@@H]1CC2(C)C` [β-caryophyllene], the “increases of protein carbonyl groups and myeloperoxidase activity in liver and plasma” value (rheumatoid arthritis) is given as “eliminated”, the “number of circulating and articular leukocytes” value (rheumatoid arthritis) is given as “reduced” and the “swelling of joints and lymph nodes” value (rheumatoid arthritis) is given as “reduced”.

In the case of `CC12CCC(CC1)C(C)(C)O2` [eucalyptol, 1,8-epoxy-p-menthane], the “factor of increase of transdermal drug uptake / penetration” value (skin [4]) is given as “more than 10”.

In the case of `Cc1cc(O)c(C)c2c1O[C@](C)(CCC[C@H](C)CCC[C@H](C)CCCC(C)C)CC2` [β-tocopherol], the relative biological activity [1] is given as 0.5.

In the case of `CC(C)[C@@H]1CC[C@@H](C)C[C@H]1O` [Menthol], the “factor of increase of transdermal drug uptake / penetration” value (skin [4]) is given as at least 10.

For `Cc1c(O)cc2c(c1C)O[C@](C)(CCC[C@H](C)CCC[C@H](C)CCCC(C)C)CC2` [γ-tocopherol], the relative biological activity [1] is given as 0.1 and the “concentration in vivo relative to α-tocopherol” value [5] is given as “roughly 10%”.

For `C=CCCCCCCCCC(=O)N[C@@H](Cc1ccccc1)C(=O)O` [UP, Undecylenoyl phenylalanine], the “time to skin lightening effects” value (skin [6]) is given as at least 7 days.

For `CC[C@H](C)[C@H](NC(=O)[C@H](CC(=O)O)NC(=O)[C@@H](N)CCCCN)C(=O)N[C@@H](CCCNC(N)=O)C(N)=O` [tripeptide-10 citrulline, Tripeptide-10 citrulline] (HELM PEPTIDE1{K.D.I.[Cit].[am]}$$$$V2.0), the improvement of suppleness (skin [7]) is listed as at most 54%.

For `Cc1cc(O)cc2c1O[C@](C)(CCC[C@H](C)CCC[C@H](C)CCCC(C)C)CC2` [δ-tocopherol], the relative biological activity [1] is listed as 0.03 and the “markers of inflammation in the blood” value (markers of inflammation) is listed as “reduced”.
